Assay results as given in patent US12162878B2 (HINOVA PHARMACEUTICALS INC., priority 2018, dated 2024).

Experiments:
Type in all cases: cell-based, human
[1] = system: BT474 cells; test: Inhibition of proliferation of BT474 cells (CCK-8); conditions: for IC50: Homo sapiens, BT-474, 144 h, 6 days, CCK-8
Method: (§1) • BT474 cell line (Cell Bank of Chinese Academy of Sciences, TCHu143) • FBS (Gibco, Cat. No. 10099-141) • 0.01M PBS (Biosharp, Cat. No. 162262) • RIPM1640 (Hyclone, Cat. No. 308090.01) • Penicillin-Streptomycin (Hyclone, Cat. No. SV30010) • Cell counting kit-8 (Signalway Antibody, Cat. No. CP002) • DMSO (Sigma, Cat. No. D5879) • Centrifuge Tube, 15 ml (Excell Bio, Cat. No. CS015-0001) • Cell Culture Dish (Excell Bio, Cat. No. CS016-0128) • 96-well cell culture cluster (Corning, Cat. No. 3599) 3. Experimental Method
1) BT474 cells were subcultured in cell culture media, and the cells in good growth condition were seeded in a 96-well plate, 80 μL for each well, thus the number of cells per well was 1500, then the plate was cultured overnight in a 37° C., 5% CO2 cell incubator.
(§2) 2) The drug was prepared with dimethyl sulfoxide (DMSO) as a 10 mM stock solution. Prior to use, the solution was diluted 3 times with DMSO, and then diluted with a 3-fold gradient to obtain 9 concentration gradients. Then, each concentration of the compound was further diluted 200 times with the culture media (to ensure that DMSO concentration in the culture system was 0.1%), 2 repeat wells for each concentration. The diluted solution of each compound (20 μL) was added to the cell culture well (with a final concentration of 10 μM, 3.3 μM, 1.1 and shaken gently for mixing. In addition, three negative control wells containing only cells and three blank control wells containing only culture medium (20 μL DMSO diluted 200 times with culture medium being added to six wells) were included.
(§3) (1) After culturing for 6 days, 10 μL CCK-8 was added to each well and cultured for additional 2.5 h in a 37° C., 5% CO2 cell incubator.
(§4) (2) The absorbance (OD value) at 450 nm was measured with a multifunctional microplate reader.
(§5) (3) The data was analyzed by the Dose-response-inhibition equation in the software GraphPad Prism6, and the IC50 value was obtained.

[2] = system: Vcap cells; test: Inhibition of proliferation of Vcap cells (CCK-8); conditions: for IC50: Homo sapiens, 144 h, 6 days, CCK-8
Method: as §1, with “Vcap” for “BT474”, “TCHu220)” for “TCHu143)”, “DMEM HIGH Glucose” for “RIPM1640”, “SH30243.01)” for “308090.01)”, “Dish,” for “Dish”, “2.” for “3.”
1) Vcap cells were subcultured in cell culture media, and the cells in good growth condition were seeded in a 96-well plate, 80 μL for each well, thus the number of cells per well was 10000, then the plate was cultured overnight in a 37° C., 5% CO2 cell incubator.
as §2, with “1.1 μM . . . ),” for “1.1”
as §3, §4, §5

[3] = system: Vcap cells; test: Compound in combination with androgen receptor inhibitor HC-1119, proliferation of Vcap cells (CCK-8); conditions: for IC50: Homo sapiens, VCaP, 144 h, 6 days, read-out: IC50 for inhibition on the activity of Vcap; for effect of combination with HC-1119 on inhibitory action on Vcap cells (in words): in combination with HC-1119, Vcap cells
Method: as §1, with “Vcap” for “BT474”, “TCHu220)” for “TCHu143)”, “DMEM HIGH Glucose” for “RIPM1640”, “SH30243.01)” for “308090.01)”, “2.” for “3.”
1) Vcap cells were subcultured in cell culture media, and the cells in good growth condition were seeded in a 96-well plate, 60 μL for each well, thus the number of cells per well was 10000, then the plate was cultured overnight in a 37° C., 5% CO2 cell incubator.
2) The drug was prepared with dimethyl sulfoxide (DMSO) as a 10 mM stock solution. Prior to use, the solution was diluted 3 times with DMSO, and then diluted with a 3-fold gradient to obtain 9 concentration gradients. Then, each concentration of the compound was further diluted 200 times with the culture media (to ensure that DMSO concentration in the culture system was 0.1%), 2 repeat wells for each concentration. The diluted solution of each compound (20 μL) was added to the cell culture well (with a final concentration of 10 μM, 3.3 μM, 1.1 μM . . . ); while the solution of HC-1119 was diluted with culture media to the concentrations of 50 μM and […], respectively, and the diluted solution of HC-1119 was added to the corresponding cell culture well (with a final concentration of 10 μM, 1 μM), then shaken gently for mixing. In addition, three negative control wells containing only cells and three blank control wells containing only culture media (20 μL DMSO diluted 200 times with culture media being added to six wells) were included.
as §3, §4, §5

[4] = in combination with 1 μM HC-1119, Vcap cells
[5] = in combination with 10 μM HC-1119, Vcap cells

## [2H]C([2H])([2H])n1cc(-c2cc(NS(=O)(=O)CC)ccc2N2CCC3(CC2)CC3)c2cc[nH]c2c1=O [Compound 41]
[1]
  IC50: 330 nM

## [2H]C([2H])([2H])n1cc(-c2cc(S(=O)(=O)CC)ccc2N2CCC3(CC3)C2)c2cc[nH]c2c1=O [Compound 55, 4-(5(ethylsulfonyl)-2-(5-aza-spiro[2.4]heptan-5-yl)phenyl)-6-trideuteromethyl-1H-pyrrolo[2,3-c]pyridin-7(6H)-one]
[1]
  inhibitory action on BT474 cells (in words): effective inhibitory action
  IC50: 130 nM

## [2H]C([2H])([2H])n1cc(-c2cc(S(C)(=O)=O)ccc2N2CCC3(CC2)CC3(F)F)c2cc[nH]c2c1=O [Compound 184, 4-(2-(1,1-difluoro-6-aza-spiro[2.5]octan-6-yl)-5-(methylsulfonyl)phenyl)-6-trideuteromethyl-1H-pyrrolo[2,3-c]pyridin-7(6H)-one]
[2]
  inhibitory action on Vcap cells (in words): effective inhibitory action
  IC50: 15 nM
[3]; compound alone, Vcap cells
  IC50: 15 nM
[3]; [4]
  IC50: 0.33 nM
[3]; [5]
  IC50: 0.13 nM
[3]
  effect of combination with HC-1119 on inhibitory action on Vcap cells (in words): improve the inhibitory action

## [2H]C([2H])([2H])n1cc(-c2cc(S(C)(=O)=O)c(F)cc2N2CCC3(CC2)CC3(F)F)c2cc[nH]c2c1=O [Compound 219, 4-(2-(1,1-difluoro-6-aza-spiro[2.5]octan-6-yl)-4-fluoro-5-(methylsulfonyl)phenyl)-6-trideuteromethyl-1H-pyrrolo[2,3-c]pyridin-7(6H)-one]
[2]
  inhibitory action on Vcap cells (in words): effective inhibitory action
  IC50: 17.6 nM
[3]; compound alone, Vcap cells
  IC50: 17.6 nM
[3]; [4]
  IC50: 0.55 nM
[3]; [5]
  IC50: 0.18 nM
[3]
  effect of combination with HC-1119 on inhibitory action on Vcap cells (in words): improve the inhibitory action
